# System: hydroponic rice seedlings
# Assay: Addition of 4,5-dimethylthiazole to hydroponic rice: growth, agronomic traits and nitrogen accumulation
# Type: in vivo, indica (Heliangyou 332) and japonica (Nipponbare)
# Details: for Dry Matter Mass of Rice, Root System / Dry Matter Mass of Rice, Shoot Part / Dry Matter Mass of Rice, Total / Leaf Area / Leaf Length / Leaf Width / Plant Height / Total Root Count: 25 days of cultivation
# Protocol: Five addition concentrations of 4,5-dimethylthiazole (CAS No. 3581-91-7, see FIG. 1 for structural formula) were set, being 0, 5, 10, 20 and 50 mg/L, respectively, and a solvent was a rice nutrient solution. Two rice varieties were indica (Heliangyou 332) and japonica (Nipponbare), respectively. The rice was subjected to normal seed soaking, sowing and cultivation. When grown to one leaf and one tiller, rice seedlings were cultivated with mixed solution. Samples were collected after 25 days of cultivation. 30 plants were sampled from each treatment, where 15 plants were divided into two parts of stems and leaves, and root system, which were dried and weighed, and the other 15 plants were measured for agronomic traits.
smiles,measurement,setting,value
"Cc1ncsc1C [4,5-dimethylthiazole]","Dry Matter Mass of Rice, Root System",5 mg/L,3.1 mg/plant
same,"Dry Matter Mass of Rice, Shoot Part",5 mg/L,17.0 mg/plant
same,"Dry Matter Mass of Rice, Total",5 mg/L,20.1 mg/plant
same,Leaf Area,5 mg/L,3.39 cm^2
same,Leaf Length,5 mg/L,10.73 cm
same,Leaf Width,5 mg/L,0.38 cm
same,Plant Height,5 mg/L,16.73 cm
same,Total Root Count,5 mg/L,8.0 count/plant
same,"Dry Matter Mass of Rice, Root System",10 mg/L,4.0 mg/plant
same,"Dry Matter Mass of Rice, Shoot Part",10 mg/L,24.3 mg/plant
same,"Dry Matter Mass of Rice, Total",10 mg/L,28.3 mg/plant
same,Leaf Area,10 mg/L,3.03 cm^2
same,Leaf Length,10 mg/L,10.88 cm
same,Leaf Width,10 mg/L,0.34 cm
same,Plant Height,10 mg/L,16.97 cm
same,Total Root Count,10 mg/L,8.0 count/plant
same,"Dry Matter Mass of Rice, Root System",20 mg/L,3.8 mg/plant
same,"Dry Matter Mass of Rice, Shoot Part",20 mg/L,22.0 mg/plant
same,"Dry Matter Mass of Rice, Total",20 mg/L,25.8 mg/plant
same,Leaf Area,20 mg/L,3.16 cm^2
same,Leaf Length,20 mg/L,11.08 cm
same,Leaf Width,20 mg/L,0.34 cm
same,Plant Height,20 mg/L,16.13 cm
same,Total Root Count,20 mg/L,8.7 count/plant
same,"Dry Matter Mass of Rice, Root System",50 mg/L,3.0 mg/plant
same,"Dry Matter Mass of Rice, Shoot Part",50 mg/L,19.7 mg/plant
same,"Dry Matter Mass of Rice, Total",50 mg/L,22.7 mg/plant
same,Leaf Area,50 mg/L,3.01 cm^2
same,Leaf Length,50 mg/L,9.23 cm
same,Leaf Width,50 mg/L,0.39 cm
same,Plant Height,50 mg/L,14.15 cm
same,Total Root Count,50 mg/L,9.3 count/plant
same,increase of leaf area,"5-50 mg/L, average",59.6%
same,increase of leaf length,"5-50 mg/L, average",33.9%
same,increase of leaf width,"5-50 mg/L, average",19.6%
same,increase of rice plant height,"5-50 mg/L, average",31.5%
same,increase of total root count,"5-50 mg/L, average",47.8%

# — US20250366474A1, “USE OF 4,5-DIMETHYLTHIAZOLE IN PROMOTING PLANT GROWTH” (HUAZHONG AGRICULTURAL UNIVERSITY, priority 2024, published 2025)
